Inhibition and IC50 data for 13 molecules are collected here from patent US20230095520A1, “PHARMACEUTICAL COMPOSITION FOR PREVENTING OR TREATING CANCER COMPRISING AZOLE DERIVATIVES OR PHARMACEUTICALLY ACCEPTABLE SALT THEREOF” (Yungjin Pharm. Co., Ltd., priority 2020, published 2023).

SMILES strings stand for the structures.

One assay concerns MV-4-11 cells. The experiment in a line: MV-4-11 cell proliferation inhibition (CCK-8). The class given is cell-based. The settings on record: Homo sapiens, MV4-11, MV-4-11, compound concentration 100 nM, 72 hours, read-out: Inhibition rate (%). As to the method: MV-4-11 cells are one of the acute myeloid leukemia cells with a Fms-like tyrosine kinase (FLT3) gene mutation, and these cells are used to test inhibition of proliferation and survival of leukemia cells.
MV-4-11 cells cultured in a 96-well cell culture plate were treated with the compound of the present invention and cultured for 72 hours. Thereafter, the antiproliferative effect of the compound was assayed by the CCK-8 method using a tetrazolium salt.
As usually defined, the inhibition is the drop in the measured response relative to a control, in per cent. Consider `C=CC(=O)Nc1ccc(-c2cccc(C(C)C(=O)Nc3ncc(C)s3)c2)cn1` (centres unmarked) [Compound 1, N-(5-(3-(1-((5-methylthiazol-2-yl)amino)-1-oxopropan-2-yl)phenyl)pyridin-2-yl)acrylamide], for which the inhibition at 0.1 µM stood at 80%. As to `C=CC(=O)Nc1ccc(-c2cccc(C(C)C(=O)Nc3ncc(CC)s3)c2)cn1` (centres unmarked) [Compound 4, N-(5-(3-(1-((5-ethylthiazol-2-yl)amino)-1-oxopropan-2-yl)phenyl)pyridin-2yl)acrylamide], the inhibition at 0.1 µM is 100%. As for `CCc1cnc(NC(=O)[C@@H](C)c2cccc(-c3ccc(NC(=O)/C=C/CN(C)C)nc3)c2)s1` [Compound 17, (S,E)-4-(dimethylamino)-N-(5-(3-(1-((5-ethylthiazol-2-yl)amino)-1-oxopropan-2-yl)phenyl)pyridin-2-yl)but-2-enamide], the inhibition at 0.1 µM amounted to 100%. In the case of `C=CC(=O)Nc1ccc(-c2cccc([C@H](C)C(=O)Nc3ncc(C#N)s3)c2)cn1` [Compound 18, (S)-N-(5-(3-(1-((5-cyanothiazol-2-yl)amino)-1-oxopropan-2-yl)phenyl)pyridin-2-yl)acrylamide], the inhibition at 0.1 µM came out at 67%. Consider `C=CC(=O)Nc1ccc(-c2cccc([C@H](CC)C(=O)Nc3ncc(CC)s3)c2)cn1` [Compound 19, (S)-2-(3-(6-acrylamidopyridin-3-yl)phenyl)-N-(5-ethylthiazol-2-yl)butanamide], for which the inhibition at 0.1 µM is 75%. For `C[C@H](C(=O)Nc1ncc(C#N)s1)c1cccc(-c2ccc(NC(=O)/C=C/CN(C)C)nc2)c1` [Compound 21, (S,E)-N-(5-(3-(1-((5-cyanothiazol-2-yl)amino)-1-oxopropan-2-yl)phenyl)pyridin-2-yl)-4-(dimethylamino)but-2-enamide], the inhibition at 0.1 µM was 84%. For the molecule `C=CC(=O)Nc1cnc(-c2cccc([C@H](C)C(=O)Nc3ncc(C#N)s3)c2)cn1` [Compound 25, (S)-N-(5-(3-(1-((5-cyanothiazol-2-yl)amino)-1-oxopropan-2-yl)phenyl)pyrazin-2-yl)acrylamide], the inhibition at 0.1 µM worked out at 100%.

Turning to `C=CC(=O)Nc1ccc(-c2cccc([C@H](C)C(=O)Nc3ncc(CC)s3)c2)cc1C#N` [Compound 30, (S)-N-(3-cyano-3′-(1-((5-ethylthiazol-2-yl)amino)-1-oxopropan-2-yl)-[1,1′-biphenyl]-4-yl)acrylamide], the inhibition at 0.1 µM amounted to 96%.

On to `C=CC(=O)Nc1ccc(-c2cccc([C@H](C)C(=O)Nc3ncc(CC)s3)c2)c(F)n1` [Compound 31, (S)-N-(5-(3-(1-((5-ethylthiazol-2-yl)amino)-1-oxopropan-2-yl)phenyl)-6-fluoropyridin-2-yl)acrylamide], for which the inhibition at 0.1 µM was found to be 98%.

As to `C=CC(=O)Nc1ccc(-c2cccc([C@H](C)C(=O)Nc3ncc(C#N)s3)c2)nn1` [Compound 32, (S)-N-(6-(3-(1-((5-cyanothiazol-2-yl)amino)-1-oxopropan-2-yl)phenyl)pyridazin-3-yl)acrylamide], the inhibition at 0.1 µM was 100%. As to `C=CC(=O)Nc1ncc(-c2cccc([C@H](C)C(=O)Nc3ncc(C#N)s3)c2)cc1F` [Compound 33, (S)-N-(5-(3-(1-((5-cyanothiazol-2-yl)amino)-1-oxopropan-2-yl)phenyl)-3-fluoropyridin-2-yl)acrylamide], the inhibition at 0.1 µM was determined as 100%. On to `C=CC(=O)Nc1ncc(-c2cccc([C@H](C)C(=O)Nc3ncc(C#N)s3)c2)nc1C` [Compound 34, (S)-N-(5-(3-(1-((5-cyanothiazol-2-yl)amino)-1-oxopropan-2-yl)phenyl)-3-methylpyrazin-2-yl)acrylamide], for which the inhibition at 0.1 µM is 80%. With `C=CC(=O)Nc1ccc(-c2cccc([C@H](C)C(=O)Nc3ncc(C(C)C)s3)c2)cn1` [Compound 35, (S)-N-(5-(3-(1-((5-isopropylthiazol-2-yl)amino)-1-oxopropan-2-yl)phenyl)pyridin-2-yl)acrylamide], the inhibition at 0.1 µM stood at 98%.

Staying with this assay, now noted: Homo sapiens, MV4-11, MV-4-11 proliferation, 72 hours.
One may read the IC50 as the concentration that gives 50% inhibition. Low values mean greater potency in that assay, high ones weaker potency in that assay. In turn, `C=CC(=O)Nc1ccc(-c2cccc(C(C)C(=O)Nc3ncc(CC)s3)c2)cn1` (centres unmarked) [Compound 4, N-(5-(3-(1-((5-ethylthiazol-2-yl)amino)-1-oxopropan-2-yl)phenyl)pyridin-2yl)acrylamide] returned a half-maximal inhibitory concentration (IC50) of 0.0508 µM.
